Test results reported in patent publication US8802720B2, “Acylamino-substituted fused cyclopentanecarboxylic acid derivatives and their use as pharmaceuticals” (SANOFI, priority 2008, dated 2014).

Molecular target: human Edg-2 receptor (LPA1 receptor) (Homo sapiens, UniProt Q92633)
Assay: Edg-2 receptor inhibition by FLIPR calcium fluorescence measurement (LPA-mediated calcium liberation)
Format: cell-based
Details: CHO cells stably overexpressing human Edg-2 receptor; LPA 18:1 100 nM; fluo-4 fluorescence; triplicate; read-out: Inhibitory concentrations IC50 for inhibition of the Edg-2 receptor
Procedure, shortened: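 CHO cells stably overexpressing human Edg-2 were fluo-4 loaded and pre-incubated ~5 min with compound (≤0.3% DMSO) in HBSS/HEPES/probenecid, pH 7.5. Then LPA 18:1 at 100 nM final was added. Peak calcium fluorescence over ~3 min, baseline-corrected versus DMSO, gave % inhibition in triplicate and IC50.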

Sequence of human Edg-2 receptor (LPA1 receptor) (Q92633 whole entry): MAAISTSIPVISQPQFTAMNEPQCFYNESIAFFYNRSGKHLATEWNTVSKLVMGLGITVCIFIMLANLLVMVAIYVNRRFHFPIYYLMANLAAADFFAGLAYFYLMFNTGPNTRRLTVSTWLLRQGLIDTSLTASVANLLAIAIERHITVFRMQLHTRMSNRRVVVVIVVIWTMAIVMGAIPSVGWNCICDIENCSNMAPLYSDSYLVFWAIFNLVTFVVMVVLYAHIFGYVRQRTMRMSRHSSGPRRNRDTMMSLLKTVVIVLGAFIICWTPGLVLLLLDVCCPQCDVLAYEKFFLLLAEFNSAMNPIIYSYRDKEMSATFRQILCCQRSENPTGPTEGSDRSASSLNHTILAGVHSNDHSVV

Row | SMILES | IC50 [nM]
1 | COc1ccc(C(=O)NC2(C(=O)O)Cc3ccccc3C2)cc1CCCc1cccc(C)c1 [Example 116, 2-[4-Methoxy-3-(3-m-tolyl-propyl)-benzoylamino]-indane-2-carboxylic acid] | < 100
2 | COc1ccc(C(=O)NC2(C(=O)O)Cc3ccccc3C2)cc1OCc1ncc(C)c(NC(C)=O)c1C [Example 77] | 1000 to 30000
3 | O=C(NC1(C(=O)O)Cc2ccccc2C1)c1ccc(C(F)(F)F)c(OCCc2cc(C(F)(F)F)ccc2F)c1 [Example 191] | < 100
4 | COc1ccc(C(=O)NC2(C(=O)O)Cc3ccccc3C2)cc1OCCc1ccccc1F [Example 139] | 100 to 1000
5 | COc1ccc(C(=O)NC2(C(=O)O)CC3CCCCC3C2)cc1OCCc1cccc(C)c1 (stereo not drawn) [Example 211, 2-[4-Methoxy-3-(2-m-tolyl-ethoxy)-benzoylamino]-octahydro-indene-2-carboxylic acid] | < 100
6 | Cc1cccc(CCOc2cc(C(=O)NC3(C(=O)O)Cc4ccccc4C3)ccc2N)c1 [Example 163, 2-[4-Amino-3-(2-m-tolyl-ethoxy)-benzoylamino]-indane-2-carboxylic acid] | 100 to 1000
7 | COc1ccc(C(=O)NC2(C(=O)O)Cc3ccccc3C2)cc1OCCc1cc(F)ccc1F [Example 204, 2-{3-[2-(2,5-Difluoro-phenyl)-ethoxy]-4-methoxy-benzoylamino}-indane-2-carboxylic acid] | < 100
8 | COc1ccc(C(=O)NC2(C(=O)O)Cc3ccccc3C2)cc1C#Cc1ccc(C(C)(C)C)cc1 [Example 195, 2-[3-(4-tert-Butyl-phenylethynyl)-4-methoxy-benzoylamino]-indane-2-carboxylic acid] | 100 to 1000
9 | COc1ccc(C(=O)NC2(C(=O)O)Cc3ccccc3C2)cc1NC(=O)Cc1ccccc1 [Example 117, 2-(4-Methoxy-3-phenylacetylamino-benzoylamino)-indane-2-carboxylic acid] | 100 to 1000
10 | COc1ccc(C(=O)NC2(C(=O)O)Cc3ccccc3C2)cc1OS(=O)(=O)c1cccc(C)c1 [Example 111, 2-[3-(toluene-3-sulfonyloxy)-4-methoxy-benzoylamino]-indane-2-carboxylic acid] | 1000 to 30000
11 | COc1ccccc1CCOc1cc(C(=O)NC2(C(=O)O)Cc3ccccc3C2)ccc1OC [Example 138] | 1000 to 30000
12 | Cc1cccc(CCOc2cc(C(=O)NC3(C(=O)O)Cc4ccccc4C3)ccc2C(F)(F)F)c1 [Example 185, 2-[3-(2-m-Tolyl-ethoxy)-4-trifluoromethyl-benzoylamino]-indane-2-carboxylic acid] | < 100
13 | COc1ccc(C(=O)NC2(C(=O)O)Cc3ccccc3C2)cc1OCCCCC(C)C [Example 59] | 1000 to 30000
14 | COc1ccc(C(=O)NC2(C(=O)O)Cc3ccccc3C2)cc1S(=O)(=O)CCc1cccc(Cl)c1 [Example 184, 2-{3-[2-(3-Chloro-phenyl)-ethanesulfonyl]-4-methoxy-benzoylamino}-indane-2-carboxylic acid] | 1000 to 30000
15 | COc1ccnc(COc2cc(C(=O)NC3(C(=O)O)Cc4ccccc4C3)ccc2OC)c1 [Example 55] | 1000 to 30000
16 | COc1ccc(C(=O)NC2(C(=O)O)Cc3ccccc3C2)cc1OCCc1ccccc1C [Example 134] | 1000 to 30000
17 | COc1ccc(C(=O)NC2(C(=O)O)Cc3ccc(F)cc3C2)cc1OCCc1cccc(C)c1 (stereo not drawn) [Example 157, 5-Fluoro-2-[4-methoxy-3-(2-m-tolyl-ethoxy)-benzoylamino]-indane-2-carboxylic acid] | < 100

Row | SMILES | IC50 [nM]
18 | COc1ccc(C(=O)NC2(C(=O)O)Cc3ccccc3C2)cc1OCCc1ccc(F)cc1 [Example 136] | 1000 to 30000
19 | CSc1ccc(C(=O)NC2(C(=O)O)Cc3ccccc3C2)cc1OCCc1cccc(C)c1 [Example 4, 2-[4-Methylsulfanyl-3-(2-m-tolyl-ethoxy)-benzoylamino]-indane-2-carboxylic acid] | < 100
20 | CCOc1ccc(C(=O)NC2(C(=O)O)Cc3ccccc3C2)cc1NCCc1cccc(C)c1 [Example 178, 2-[4-Ethoxy-3-(2-m-tolyl-ethylamino)-benzoylamino]-indane-2-carboxylic acid] | 1000 to 30000
21 | COc1ccc(C(=O)NC2(C(=O)O)Cc3ccccc3C2)cc1OCCc1scnc1C [Example 206, 2-{4-Methoxy-3-[2-(4-methyl-thiazol-5-yl)-ethoxy]-benzoylamino}-indane-2-carboxylic acid] | 1000 to 30000
22 | COc1ccc(C(=O)NC2(C(=O)O)Cc3ccccc3C2)cc1OCC1CCCC1 [Example 42] | 1000 to 30000
23 | COc1ccc(C(=O)NC2(C(=O)O)Cc3ccccc3C2)cc1OCCc1cc(C)ccc1C [Example 140] | 1000 to 30000
24 | COc1ccc(C(=O)NC2(C(=O)O)Cc3ccccc3C2)cc1OCCc1cccs1 [Example 147] | 100 to 1000
25 | COc1ccc(C(=O)NC2(C(=O)O)Cc3ccccc3C2)cc1OCCc1ccccn1 [Example 148] | 1000 to 30000
26 | COc1ccc(C(=O)NC2(C(=O)O)Cc3ccccc3C2)cc1OCCc1c(F)cccc1Cl [Example 152] | < 100
27 | COc1ccc(C(=O)NC2(C(=O)O)Cc3ccccc3C2)cc1OCc1cc(C)ccc1C [Example 65] | 1000 to 30000
28 | COc1ccc(C(=O)NC2(C(=O)O)Cc3ccccc3C2)cc1C#Cc1ccc(C(F)(F)F)cc1 [Example 194, 2-[4-Methoxy-3-(4-trifluoromethyl-phenylethynyl)-benzoylamino]-indane-2-carboxylic acid] | 1000 to 30000
29 | COc1ccc(C(=O)NC2(C(=O)O)Cc3ccccc3C2)cc1OCC(F)(F)c1cccc(Cl)c1 [Example 212, 2-{3-[2-(3-Chloro-phenyl)-2,2-difluoro-ethoxy]-4-methoxy-benzoylamino}-indane-2-carboxylic acid] | < 100
30 | Cc1cccc(CCOc2cc(C(=O)NC3(C(=O)O)Cc4ccccc4C3)ccc2Br)c1 [Example 2, 2-[4-Bromo-3-(2-m-tolyl-ethoxy)-benzoylamino]-indane-2-carboxylic acid] | < 100
31 | COc1ccc(C(=O)NC2(C(=O)O)Cc3ccccc3C2)cc1OCCCC1CCCCC1 [Example 61] | 1000 to 30000
32 | COc1ccc(C(=O)NC2(C(=O)O)Cc3ccccc3C2)cc1OCC1(c2cccc(C)c2)CC1 [Example 24] | < 100
33 | COc1ccc(C(=O)NC2(C(=O)O)Cc3ccccc3C2)cc1OCCc1cccc(C)c1 [Example 14, 2-[4-Methoxy-3-(2-m-tolyl-ethoxy)-benzoylamino]-indane-2-carboxylic acid] | < 100

Other lines, results leading:

Row | IC50 [nM] | SMILES
34 | 1000 to 30000 | COc1ccc(C(=O)NC2(C(=O)O)Cc3ccc(C(N)=O)cc3C2)cc1OCCc1cccc(C)c1 (stereo not drawn) [Example 219, 5-Carbamoyl-2-[4-methoxy-3-(2-m-tolyl-ethoxy)-benzoylamino]-indane-2-carboxylic acid]
35 | < 100 | COc1ncc(C(=O)NC2(C(=O)O)Cc3ccccc3C2)cc1-c1cccc(NS(=O)(=O)N(C)C)c1 [Example 231]
36 | 100 to 1000 | COc1ccc(C(=O)NC2(C(=O)O)Cc3ccccc3C2)cc1-c1cccc(NC(C)=O)c1 [Example 287]
37 | 100 to 1000 | COc1ccc(C(=O)NC2(C(=O)O)Cc3ccccc3C2)cc1-c1cccc(S(C)(=O)=O)c1 [Example 309]
38 | 1000 to 30000 | COc1ccc(C(=O)NC2(C(=O)O)Cc3ccccc3C2)cc1-c1cccc(CN(C)C)c1 [Example 338]
39 | 1000 to 30000 | COc1ccc(C(=O)NC2(C(=O)O)Cc3ccccc3C2)cc1OCCc1nonc1C [Example 353]
40 | 1000 to 30000 | COc1ccc(C(=O)NC2(C(=O)O)Cc3ccccc3C2)cc1-c1cc(OC(C)C)ccc1F [Example 336]
41 | < 100 | COc1c(F)cc(C(=O)NC2(C(=O)O)Cc3ccccc3C2)cc1-c1cccc(NS(C)(=O)=O)c1 [Example 359]
42 | < 100 | COc1ncc(C(=O)NC2(C(=O)O)Cc3ccccc3C2)cc1-c1ccc(Cl)cc1 [Example 226]
43 | 1000 to 30000 | CCCOc1ccc(-c2cc(C(=O)NC3(C(=O)O)Cc4ccccc4C3)ccc2OC)cc1Cl [Example 321]
44 | < 100 | COc1ccc(C(=O)NC2(C(=O)O)Cc3cccc(C)c3C2)cc1OCCc1cccc(C)c1 (stereo not drawn) [Example 216, 2-[4-Methoxy-3-(2-m-tolyl-ethoxy)-benzoylamino]-4-methyl-indane-2-carboxylic acid]
45 | < 100 | COc1ccc(C(=O)NC2(C(=O)O)Cc3ccccc3C2)cc1-c1csc2ccccc12 [Example 295]
46 | 1000 to 30000 | COc1ccc(C(=O)NC2(C(=O)O)Cc3ccccc3C2)cc1OCCc1cccc(CCN)c1 [Example 246, 2-(3-{2-[3-(2-Amino-ethyl)-phenyl]-ethoxy}-4-methoxy-benzoylamino)-indane-2-carboxylic acid]
47 | < 100 | COc1ccc(C(=O)NC2(C(=O)O)Cc3ccccc3C2)cc1Cc1ccc(C)cc1 [Example 245, 2-[4-Methoxy-3-(4-methyl-benzyl)-benzoylamino]-indane-2-carboxylic acid]
48 | 100 to 1000 | COc1ccc(C(=O)NC2(C(=O)O)Cc3ccccc3C2)cc1-c1ccc(Cl)cc1 [Example 280]
49 | 100 to 1000 | COc1ccc(C(=O)NC2(C(=O)O)Cc3ccccc3C2)cc1-c1cccc(OCc2ccccc2)c1 [Example 305]
50 | < 100 | COc1ccc(C(=O)NC2(C(=O)O)Cc3ccccc3C2)cc1-c1cccc(Cl)c1C [Example 327]
51 | 100 to 1000 | COc1ncc(C(=O)NC2(C(=O)O)Cc3ccccc3C2)cc1-c1ccccc1Cl [Example 225]
52 | < 100 | COc1ccc(C(=O)NC2(C(=O)O)Cc3ccccc3C2)cc1OCC1(c2ccccc2)COC1 [Example 250, 2-[4-Methoxy-3-(3-phenyl-oxetan-3-ylmethoxy)-benzoylamino]-indane-2-carboxylic acid]
53 | < 100 | O=C(NC1(C(=O)O)Cc2ccccc2C1)c1ccc(C(F)(F)F)c(OCCc2cc(Cl)ccc2Cl)c1 [Example 362, 2-{3-[2-(2,5-Dichloro-phenyl)-ethoxy]-4-trifluoromethyl-benzoylamino}-indane-2-carboxylic acid]
54 | 100 to 1000 | COc1ccc(C(=O)NC2(C(=O)O)Cc3ccccc3C2)cc1Oc1ccccc1C [Example 238, 2-(4-Methoxy-3-o-tolyloxy-benzoylamino)-indane-2-carboxylic acid]
